# Earlier results in PubChem BioAssay AID1259409 (Chemical Carcinogenesis Research Information System (CCRIS), 2018).
# Several values for one entry are separate records, joined by “and”; a condition that tells them apart may be missing. Identical values can stand only once.
# Tested on: rodent chemically induced tumor inhibition, incidence and multiplicity
# Assay: CCRIS tumor inhibitor studies
structure (smiles),measurement,setting,value
C=C(C)C1CC=C(CO)CC1 (configuration not stated),"tumour outcome (control, treated, inhibition, significance)","Carcinogen: 4-(METHYLNITROSAMINO)-1-(3-PYRIDYL)-1-BUTANONE, 64091-91-4, Dose [Inhibitor]: 0, 75 MG/KG BW 3/WK FOR 22 WK BEGINNING 1 WK PRIOR TO CARCINOGEN TREATMENT (STUDY DURATION: 23 WK), Route [Inhibitor]: INTRAPERITONEAL, Species: MOUSE, Strain/Sex: C3AF1/MALE, Target Tissue: Type of Lesion: LUNG: TUMOR, Dose [Carcinogen]: 100 MG/KG BW 1/WK FOR 2 WK, Promoter: NONE USED","100%, 79%, 21%, p<0.005"
same,"tumour outcome (control, treated, inhibition, significance)","Carcinogen: AZOXYMETHANE [25843-45-2], Dose [Inhibitor]: 1 G/KG IN DIET FOR 55 WK BEGINNING 2 WK PRIOR TO FIRST CARCINOGEN DOSE (STUDY DURATION: 55 WK), Route [Inhibitor]: ORAL, Species: RAT, Strain/Sex: F344/MALE, Target Tissue: Type of Lesion: COLON: ADENOCARCINOMA, Dose [Carcinogen]: 15 MG/KG BW 1/WK FOR 2 WK (STUDY DURATION: 55 WK), Promoter: NONE","78%, 64%, 18%, not significant and 78%, 56%, 29%, p<0.05"
same,"tumour outcome (control, treated, inhibition, significance)","Carcinogen: AZOXYMETHANE [25843-45-2], Dose [Inhibitor]: 1 G/KG IN DIET FOR 55 WK BEGINNING 2 WK PRIOR TO FIRST CARCINOGEN DOSE (STUDY DURATION: 55 WK), Route [Inhibitor]: ORAL, Species: RAT, Strain/Sex: F344/MALE, Target Tissue: Type of Lesion: SMALL INTESTINE: ADENOCARCINOMA, Dose [Carcinogen]: 15 MG/KG BW 1/WK FOR 2 WK (STUDY DURATION: 55 WK), Promoter: NONE","31%, 28%, 9%, not significant"
same,"tumour outcome (control, treated, inhibition, significance)","Carcinogen: AZOXYMETHANE [25843-45-2], Dose [Inhibitor]: 2 G/KG IN DIET FOR 55 WK BEGINNING 2 WK PRIOR TO FIRST CARCINOGEN DOSE (STUDY DURATION: 55 WK), Route [Inhibitor]: ORAL, Species: RAT, Strain/Sex: F344/MALE, Target Tissue: Type of Lesion: SMALL INTESTINE: ADENOCARCINOMA, Dose [Carcinogen]: 15 MG/KG BW 1X/WK FOR 2 WK (STUDY DURATION: 55 WK), Promoter: NONE","31%, 11%, 64%, p<0.05"
CCC(=O)O[C@H]1CC[C@H]2[C@@H]3CCC4=CC(=O)CC[C@]4(C)[C@H]3CC[C@]12C,"tumour outcome (control, treated, inhibition, significance)","Carcinogen: CADMIUM CHLORIDE, 10108-64-2, Dose [Inhibitor]: APPROXIMATELY NORMAL CIRCULATING LEVELS OF TESTOSTERONE BEGINNING 2 WK PRIOR TO CARCINOGEN TREATMENT, IMPLANTS REPLACED, Route [Inhibitor]: SUBCUTANEOUS IMPLANT, Species: RAT, Strain/Sex: F344/MALE, Target Tissue: Type of Lesion: HEMATOPOIETIC SYSTEM: LEUKEMIA, Dose [Carcinogen]: 20 UMOL 1/WK FOR 5 WK, Promoter: NONE USED","9/40 (23%), 10/37 (27%), -17%, not significant"
same,"tumour outcome (control, treated, inhibition, significance)","Carcinogen: CADMIUM CHLORIDE, 10108-64-2, Dose [Inhibitor]: APPROXIMATELY NORMAL CIRCULATING LEVELS OF TESTOSTERONE BEGINNING 2 WK PRIOR TO CARCINOGEN TREATMENT, IMPLANTS REPLACED, Route [Inhibitor]: SUBCUTANEOUS IMPLANT, Species: RAT, Strain/Sex: F344/MALE, Target Tissue: Type of Lesion: INJECTION SITE: SARCOMA, Dose [Carcinogen]: 20 UMOL 1/WK FOR 5 WK, Promoter: NONE USED","28/40 (70%), 22/37 (59%), 16%, not significant"
same,"tumour outcome (control, treated, inhibition, significance)","Carcinogen: CADMIUM CHLORIDE, 10108-64-2, Dose [Inhibitor]: APPROXIMATELY NORMAL CIRCULATING LEVELS OF TESTOSTERONE BEGINNING 2 WK PRIOR TO CARCINOGEN TREATMENT, IMPLANTS REPLACED, Route [Inhibitor]: SUBCUTANEOUS IMPLANT, Species: RAT, Strain/Sex: F344/MALE, Target Tissue: Type of Lesion: TESTES: TUMOR, Dose [Carcinogen]: 20 UMOL 1/WK FOR 5 WK, Promoter: NONE USED","34/40 (85%), 0/37 (0%), 100%, p<0.05"
same,"tumour outcome (control, treated, inhibition, significance)","Carcinogen: N-NITROSOBIS(2-OXOPROPYL)AMINE, 60599-38-4, Dose [Inhibitor]: 0, 40 MG PELLET INSERTED IN THE INTERSCAPULAR REGION AND REPLACED EVERY 6 WK FOR LIFE BEGINNING POST LAST CARCINOGEN DOS, Route [Inhibitor]: SUBCUTANEOUS, Species: RAT, Strain/Sex: MRC/MALE, Target Tissue: Type of Lesion: COLON: TUMOR, Dose [Carcinogen]: 10 MG/KG 1/WK FOR 20 WK, Promoter: NONE USED","2/26 (8%), 1/24 (4%), 50%, not calculated"
same,"tumour outcome (control, treated, inhibition, significance)","Carcinogen: N-NITROSOBIS(2-OXOPROPYL)AMINE, 60599-38-4, Dose [Inhibitor]: 0, 40 MG PELLET INSERTED IN THE INTERSCAPULAR REGION AND REPLACED EVERY 6 WK FOR LIFE BEGINNING POST LAST CARCINOGEN DOS, Route [Inhibitor]: SUBCUTANEOUS, Species: RAT, Strain/Sex: MRC/MALE, Target Tissue: Type of Lesion: RECTUM: TUMOR, Dose [Carcinogen]: 10 MG/KG 1/WK FOR 20 WK, Promoter: NONE USED","9/26 (35%), 14/24 (58%), -66%, not calculated"
same,"tumour outcome (control, treated, inhibition, significance)","Carcinogen: N-NITROSOBIS(2-OXOPROPYL)AMINE, 60599-38-4, Dose [Inhibitor]: 0, 40 MG PELLET INSERTED IN THE INTERSCAPULAR REGION AND REPLACED EVERY 6 WK FOR LIFE BEGINNING WITH FIRST CARCINOGEN DO, Route [Inhibitor]: SUBCUTANEOUS, Species: RAT, Strain/Sex: MRC/MALE, Target Tissue: Type of Lesion: COLON: TUMOR, Dose [Carcinogen]: 10 MG/KG 1/WK FOR 20 WK, Promoter: NONE USED","2/26 (8%), 0/29 (0%), 100%, not calculated"
same,"tumour outcome (control, treated, inhibition, significance)","Carcinogen: N-NITROSOBIS(2-OXOPROPYL)AMINE, 60599-38-4, Dose [Inhibitor]: 0, 40 MG PELLET INSERTED IN THE INTERSCAPULAR REGION AND REPLACED EVERY 6 WK FOR LIFE BEGINNING WITH FIRST CARCINOGEN DO, Route [Inhibitor]: SUBCUTANEOUS, Species: RAT, Strain/Sex: MRC/MALE, Target Tissue: Type of Lesion: RECTUM: TUMOR, Dose [Carcinogen]: 10 MG/KG 1/WK FOR 20 WK, Promoter: NONE USED","9/26 (35%), 0/29 (0%), 100%, p<0.005"
same,"tumour outcome (control, treated, inhibition, significance)","Carcinogen: N-NITROSOBIS(2-OXOPROPYL)AMINE, 60599-38-4, Dose [Inhibitor]: 0, 40 MG PELLET INSERTED IN THE INTERSCAPULAR REGION AND REPLACED EVERY 6 WK FOR LIFE BEGINNING WITH FIRST CARCINOGEN DO, Route [Inhibitor]: SUBCUTANEOUS, Species: RAT, Strain/Sex: MRC/MALE, Target Tissue: Type of Lesion: RECTUM: TUMOR, Dose [Carcinogen]: 20 MG/KG 1/D FOR 3 D, Promoter: NONE USED","6/13 (46%), 0/25 (0%), 100%, p<0.005"
CC(O)CCC(=O)c1ccccc1 (configuration not stated),"tumour outcome (control, treated, inhibition, significance)","Carcinogen: 4-(METHYLNITROSAMINO)-1-(3-PYRIDYL)-1-BUTANONE, 64091-91-4, Dose [Inhibitor]: 0, 25 UMOL IN 0.1 ML CORN OIL ONCE 2 HR PRIOR TO CARCINOGEN DOSE (STUDY DURATION: 16 WK), Route [Inhibitor]: GAVAGE, Species: MOUSE, Strain/Sex: STRAIN-A/FEMALE, Target Tissue: Type of Lesion: LUNG: ADENOMA, Dose [Carcinogen]: 10 UMOL IN 0.1 ML SALINE ONCE, Promoter: NONE USED","100%, 95%, 5%, not significant"
same,"tumour outcome (control, treated, inhibition, significance)","Carcinogen: 4-(METHYLNITROSAMINO)-1-(3-PYRIDYL)-1-BUTANONE, 64091-91-4, Dose [Inhibitor]: 0, 25 UMOL IN 0.1 ML CORN OIL ONCE 2 HR PRIOR TO CARCINOGEN DOSE (STUDY DURATION: 16 WK), Route [Inhibitor]: GAVAGE, Species: MOUSE, Strain/Sex: STRAIN-A/FEMALE, Target Tissue: Type of Lesion: LUNG: TUMOR, Dose [Carcinogen]: 10 UMOL IN 0.1 ML SALINE ONCE, Promoter: NONE USED","100%, 100%, 0%, not significant"
Clc1ccc(-c2cc(Cl)c(Cl)c(Cl)c2)cc1Cl,"tumour outcome (control, treated, inhibition, significance)","Carcinogen: 7,12-DIMETHYLBENZ[A]ANTHRACENE, 57-97-6, Dose [Inhibitor]: 0, 2.5 NG/KG BW ADMINISTERED INTRAGASTRICALLY TO MOTHERS ON DAYS 13 TO 19 POST-CONCEPTION (STUDY DURATION: 178 D), Route [Inhibitor]: IN UTERO, ORAL, Species: RAT, Strain/Sex: SD/FEMALE, Target Tissue: Type of Lesion: MAMMARY GLAND: TUMOR, Dose [Carcinogen]: 20 MG/KG BW ADMINISTERED TO 50-DAY OLD OFFSPRING","93%, 93%, 0%, not significant"
same,"tumour outcome (control, treated, inhibition, significance)","Carcinogen: 7,12-DIMETHYLBENZ[A]ANTHRACENE, 57-97-6, Dose [Inhibitor]: 0, 7.5 UG/KG BW ADMINISTERED INTRAGASTRICALLY TO MOTHERS ON DAYS 13 TO 19 POST-CONCEPTION (STUDY DURATION: 178 D), Route [Inhibitor]: IN UTERO, ORAL, Species: RAT, Strain/Sex: SD/FEMALE, Target Tissue: Type of Lesion: MAMMARY GLAND: TUMOR, Dose [Carcinogen]: 20 MG/KG BW ADMINISTERED TO 50-DAY OLD OFFSPRING","93%, 78%, 17%, p<0.05"
same,"tumour outcome (control, treated, inhibition, significance)","Carcinogen: 7,12-DIMETHYLBENZ[A]ANTHRACENE, 57-97-6, Dose [Inhibitor]: 0, 250 NG/KG BW ADMINISTERED INTRAGASTRICALLY TO MOTHERS ON DAYS 13 TO 19 POST-CONCEPTION (STUDY DURATION: 178 D), Route [Inhibitor]: IN UTERO, ORAL, Species: RAT, Strain/Sex: SD/FEMALE, Target Tissue: Type of Lesion: MAMMARY GLAND: TUMOR, Dose [Carcinogen]: 20 MG/KG BW ADMINISTERED TO 50-DAY OLD OFFSPRING","93%, 96%, -3%, not significant"
